This note sets out measurements from US20230165846A1, “HETEROCYCLIC GLP-1 AGONISTS” (Gasherbrum Bio, Inc., priority 2020, published 2023).

Where only a bound is given, the exact number is not on record here.

The target of assay [1] is T1, GLP-1 Receptor (Homo sapiens, UniProt P43220). In words: GLP-1R agonist cAMP stimulation assay, Method 1 (DiscoverX CHO-K1, enzyme fragment complementation). In kind it is cell-based. The following applies: CHO-K1 cell line (DiscoverX) stably expressing GLP-1 Receptor; incubation 30 or 60 min at 37° C.; geometric mean where n>=2; read-out: GLP1R cAMP Stimulation DR: EC50 (nM) Method 1. As to the method:
Activation of GLP-1 receptor is known to stimulate cyclic AMP (cAMP) production in cells which indicates primary coupling to the Gas subunit of the G protein heterotrimeric complex.
Method 1: To optimize functional activity directed toward Gas coupling, a CHO—K1 cell line developed by DiscoverX stably expressing the GLP-1 Receptor was used. Cells expressing GLP-1 receptor were plated in a 384-well microtiter plates and incubated overnight at 37° C. with 5% CO2 to allow the cells to attach and grow. Media was then aspirated from the cells and replaced with 15 uL 2:1 Hanks Balanced Salt Solution (HBSS)/10mM Hepes : cAMP XS+ Ab reagent. Five microliters (5 uL) of previously generated compound sample stocks at 4x final concentration in assay buffer were then added to the cells and allowed to incubate at 37° C. for 30 or 60 minutes.
After incubation the assay signal was generated using enzyme fragment complementation (EFC). In EFC, the enzyme B-galactosidase is split into two complementary portions (EA and ED). The fragment ED is fused to cAMP and in the assay format competes with endogenous cAMP for binding to a cAMP specific antibody. Activated β—Gal is formed when exogenous EA fragment binds to free ED-cAMP (not bound to cAMP specific antibody). Activated enzyme levels are detected through conversion of β-gal chemiluminescent substrate which generates a detectable luminescence signal and read on standard microtiter plate.
The methodology for detection of cAMP using EFC requires incubation with 20uL of cAMP XS+ ED/CL lysis cocktail for one hour followed by incubation with 20 uL cAMP XS+ EA reagent for three hours at room temperature. Microplates were read following signal generation with a PerkinElmer Envision instrument utilizing chemiluminescent signal detection. Compound activity was analyzed using CBIS data analysis suite (ChemInnovation, CA). Percentage activity was calculated using the following formula:
(§1) %Activity = 100% x (mean RLU of test sample - mean RLU of vehicle control) / (mean RLU of MAX control - mean RLU of vehicle control))
(§2) This is done to account for the lognormal distribution of multiple estimates of EC50 values. In practice geometric mean is calculated by first generating log values of EC50, averaging replicates and then calculating the antilog of the average.

Assay [2] concerns the target T1, GLP-1 Receptor. Description: GLP-1R agonist cAMP stimulation assay, Method 2 (HDB HEK293/GLP1R/CRE-LUC, Cisbio cAMP dynamic 2 kit). Type of assay: cell-based. Particulars: HEK293/GLP1R/CRE-LUC cells (HD Biosciences); 30 min at 37° C.; 0.5 mM IBMX, 0.1% BSA; geometric mean where n>=2; read-out: GLP1R cAMP Stimulation DR: EC50 (nM) Method 2 (HDB). The procedure:
Method 2: Activation of GLP-1 receptor is known to stimulate cyclic AMP (cAMP) production in cells which indicates primary coupling to the Gas subunit of the G protein heterotrimeric complex.
To optimize functional activity directed toward Gas coupling, a HEK293/CRE-Luc cell line developed by HDB stably expressing the GLP-1 Receptor was used. 200× concentration of compound working solutions were prepared (Agilent Technologies Bravo) with ½log serial dilution in 384-well Echo LDV plate (Labcyte, Cat# LP-0200). […] Seal the plate and incubate at 37° C. with 5% CO2 for 30 min.
After incubation the cAMP assay signal was generated using cAMP dynamic 2 Kit (Cisbio). 5 µL cAMP-d2 working solution was added to each well, followed with 5 µL Anti-cAMP antibody-cryptate working solution added to each well using ThermoFisher Multidrop Combi. Incubate at room temperature for 1 hour protected from light.
as §1, §2

T1 sequence (P43220 24-463): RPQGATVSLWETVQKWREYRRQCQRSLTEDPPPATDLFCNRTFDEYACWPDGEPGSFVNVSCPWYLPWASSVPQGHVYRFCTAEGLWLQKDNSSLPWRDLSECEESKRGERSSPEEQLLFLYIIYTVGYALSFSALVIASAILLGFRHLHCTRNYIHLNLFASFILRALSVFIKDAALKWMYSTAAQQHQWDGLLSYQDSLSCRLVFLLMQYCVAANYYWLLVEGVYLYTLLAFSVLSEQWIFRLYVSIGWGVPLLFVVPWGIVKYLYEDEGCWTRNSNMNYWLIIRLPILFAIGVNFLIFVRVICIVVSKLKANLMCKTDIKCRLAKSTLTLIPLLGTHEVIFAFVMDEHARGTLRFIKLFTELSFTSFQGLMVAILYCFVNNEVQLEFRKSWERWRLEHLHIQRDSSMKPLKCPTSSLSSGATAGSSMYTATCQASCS

Turning to `N#Cc1ccc(COc2nc(C3=CCN(Cc4nc5ccc(C(=O)O)nc5n4C[C@@H]4CCO4)CC3)cs2)c(F)c1` [Compound 112a, (S)-2-((4-(2-((4-cyano-2-fluorobenzyl)oxy)thiazol-4-yl)-3,6-dihydropyridin-1 (2H)-yl)methyl)-3-(oxetan-2-ylmethyl)-3H-imidazo[4,5-b]pyridine-5-carboxylic acid], the EC50 (commonly the concentration needed to bring the measured effect to its halfway point) at GLP-1 Receptor [1] was 0.26 nM; on GLP-1 Receptor [2] it was 0.17 nM.
Consider `O=C(O)c1ccc2nc(CC3CC=C(c4nccc(OCc5ccc(Cl)cc5F)n4)CC3)n(C[C@@H]3CCO3)c2n1` (stereo partly drawn) [Compound 103a, 2-((4-(4-((4-chloro-2-fluorobenzyl)oxy)pyrimidin-2-yl)cyclohex-3-en-1-yl)methyl)-3-(((S)-oxetan-2-yl)methyl)-3H-imidazo[4,5-b]pyridine-5-carboxylic acid], for which the values for the EC50 on GLP-1 Receptor [1] and on GLP-1 Receptor [2] were 0.073 nM and 0.095 nM, respectively.
In the case of `N#Cc1ccc(COc2nccc(C3=CCC(Cc4nc5ccc(C(=O)O)nc5n4C[C@@H]4CCO4)CC3)n2)c(F)c1` (stereo partly drawn) [Compound 105a, 2-((4-(2-((4-cyano-2-fluorobenzyl)oxy)pyrimidin-4-yl)cyclohex-3-en-1-yl)methyl)-3-(((S)-oxetan-2-yl)methyl)-3H-imidazo[4,5-b]pyridine-5-carboxylic acid], the EC50 on GLP-1 Receptor [1] turned out to be 0.12 nM; at GLP-1 Receptor [2], 0.089 nM.
The like results for `O=C(O)c1ccc2nc(Cc3ccc(-c4cccc(OCc5ccc(Cl)cc5F)n4)cc3)n(C[C@@H]3CCO3)c2n1` [Compound 120aw, 2-[[4-[6-[(4-chloro-2-fluoro-phenyl)methoxy]-2-pyridyl]phenyl]methyl]-3-[[(2S)-oxetan-2-yl]methyl]imidazo[4,5-b]pyridine-5-carboxylic acid] were, in that order, < 0.051 nM and 0.017 nM.
The like results for `O=C(O)c1ccc2nc(Cc3ccc(-c4nccc(OCc5ccccc5)n4)cc3)n(C[C@@H]3CCO3)c2n1` [Compound 102aw, 2-[[4-(4-benzyloxypyrimidin-2-yl)phenyl]methyl]-3-[[(2S)-oxetan-2-yl]methyl]imidazo[4,5-b]pyridine-5-carboxylic acid] were, in that order, 2.2 nM and 1.9 nM.
Turning to `O=C(O)c1ccc2nc(CC3CC=C(c4ccnc(OCc5ccc(Cl)cc5F)n4)CC3)n(C[C@@H]3CCO3)c2n1` (stereo partly drawn) [Compound 104a, 2-((4-(2-((4-chloro-2-fluorobenzyl)oxy)pyrimidin-4-yl)cyclohex-3-en-1-yl)methyl)-3-(((S)-oxetan-2-yl)methyl)-3H-imidazo[4,5-b]pyridine-5-carboxylic acid], the EC50 at GLP-1 Receptor [1] is 0.114 nM; at GLP-1 Receptor [2] it was 0.12 nM.
For the compound `O=C(O)c1ccc2nc(COc3cc(-c4cccc(OCc5ccc(Cl)cc5F)n4)c(F)cn3)n(C[C@@H]3CCO3)c2n1` [Compound 109aw, (S)-2-(((6-((4-chloro-2-fluorobenzyl)oxy)-5′-fluoro-[2,4′-bipyridin]-2′-yl)oxy)methyl)-3-(oxetan-2-ylmethyl)-3H-imidazo[4,5-b]pyridine-5-carboxylic acid], the EC50 was determined as 4.8 nM at GLP-1 Receptor [1] and 10 nM at GLP-1 Receptor [2].
On to `O=C(O)c1ccc2nc(Cn3ccc(-c4cccc(OCc5ccc(Cl)cc5F)n4)cc3=O)n(C[C@@H]3CCO3)c2c1` [Compound 107aw, 2-[[4-[6-[(4-chloro-2-fluorophenyl)methoxy]-2-pyridyl]-2-oxo-1-pyridyl]methyl]-3-[[(2S)-oxetan-2-yl]methyl]benzimidazole-5-carboxylic acid], for which the EC50 at GLP-1 Receptor [1] was 0.28 nM; at GLP-1 Receptor [2], 0.19 nM.
For `O=C(O)c1ccc2nc(CN3CC=C(c4cccc(OCc5ccc(Cl)cc5F)n4)CC3)n(C[C@@H]3CCO3)c2n1` [Compound 110a, (S)-2-((6-((4-chloro-2-fluorobenzyl)oxy)-3′,6′-dihydro-[2,4′-bipyridin]-1′(2′H)-yl)methyl)-3-(oxetan-2-ylmethyl)-3H-imidazo[4,5-b]pyridine-5-carboxylic acid], the EC50 on GLP-1 Receptor [1] is < 0.051 nM; on GLP-1 Receptor [2] it was 0.0074 nM.
The like results for `O=C(O)c1ccc2nc(CN3CC=C(c4csc(OCc5ccc(Cl)cc5F)n4)CC3)n(C[C@@H]3CCO3)c2n1` [Compound 111a] were, in that order, 0.18 nM and 0.073 nM.
Consider `O=C(O)c1ccc2nc(Cc3ccc(-c4nccc(OCc5ccc(Cl)cc5F)n4)cc3)n(C[C@@H]3CCO3)c2n1` [Compound 101aw, (S)-2-(4-(4-((4-chloro-2-fluorobenzyl)oxy)pyrimidin-2-yl)benzyl)-3-(oxetan-2-ylmethyl)-3H-imidazo[4,5-b]pyridine-5-carboxylic acid], for which the EC50 on GLP-1 Receptor [1] was 0.069 nM; on GLP-1 Receptor [2], 0.097 nM.
Turning to `O=C(O)c1ccc2nc(CC3CC=C(c4cccc(OCc5ccc(Cl)cc5F)n4)CC3)n(C[C@@H]3CCO3)c2n1` (stereo partly drawn) [Compound 102a, 2-((4-(6-((4-chloro-2-fluorobenzyl)oxy)pyridin-2-yl)cyclohex-3-en-1-yl)methyl)-3-(((S)-oxetan-2-yl)methyl)-3H-imidazo[4,5-b]pyridine-5-carboxylic acid], the EC50 on GLP-1 Receptor [1] was 0.016 nM; on GLP-1 Receptor [2], 0.0096 nM.
The like results for `N#Cc1ccc(COc2cccc(C3=CCC(Cc4nc5ccc(C(=O)O)nc5n4C[C@@H]4CCO4)CC3)n2)c(F)c1` (stereo partly drawn) [Compound 101a, 2-((4-(6-((4-cyano-2-fluorobenzyl)oxy)pyridin-2-yl)cyclohex-3-en-1-yl)methyl)-3-(((S)-oxetan-2-yl)methyl)-3H-imidazo[4,5-b]pyridine-5-carboxylic acid] were, in that order, < 0.051 nM and 0.019 nM.
The like results for `Cc1cn(Cc2nc3ccc(C(=O)O)nc3n2C[C@@H]2CCO2)c(=O)cc1-c1cccc(OCc2ccc(Cl)cc2F)n1` [Compound 104aw, (S)-2-((6-((4-chloro-2-fluorobenzyl)oxy)-5′-methyl-2′-oxo-[2,4′-bipyridin]-1′(2′H)-yl)methyl)-3-(oxetan-2-ylmethyl)-3H-imidazo[4,5-b]pyridine-5-carboxylic acid] were, in that order, 0.17 nM and 0.13 nM.
The like results for `O=C(O)c1ccc2nc(COc3cc(-c4cccc(OCc5ccc(Cl)cc5F)c4)ccn3)n(C[C@@H]3CCO3)c2n1` [Compound 110aw, 2-[[4-[3-[(4-chloro-2-fluoro-phenyl)methoxy]phenyl]-2-pyridyl]oxymethyl]-3-[[(2S)-oxetan-2-yl]methyl]imidazo[4,5-b]pyridine-5-carboxylic acid] were, in that order, 43 nM and 88 nM.
Regarding `O=C(O)c1ccc2nc(Cn3ccc(-c4cccc(OCc5ccc(Cl)cc5F)n4)cc3=O)n(C[C@@H]3CCO3)c2n1` [Compound 103aw, (S)-2-((6-((4-chloro-2-fluorobenzyl)oxy)-2′-oxo-[2,4′-bipyridin]-1′(2′H)-yl)methyl)-3-(oxetan-2-ylmethyl)-3H-imidazo[4,5-b]pyridine-5-carboxylic acid], the EC50 worked out at 0.38 nM at GLP-1 Receptor [1] and 0.89 nM on GLP-1 Receptor [2].
The like results for `O=C(O)c1ccc2nc(Cn3ccc(-c4cccc(OCc5ccc(Cl)cc5F)c4)cc3=O)n(C[C@@H]3CCO3)c2n1` [Compound 108aw, 2-[[4-[3-[(4-chloro-2-fluoro-phenyl)methoxy]phenyl]-2-oxo-1-pyridyl]methyl]-3-[[(2S)-oxetan-2-yl]methyl]-imidazo[4,5-b]pyridine-5-carboxylic acid] were, in that order, 5.9 nM and 5.7 nM.
The like results for `N#Cc1ccc(COc2cccc(-c3ccn(Cc4nc5ccc(C(=O)O)nc5n4C[C@@H]4CCO4)c(=O)c3)n2)c(F)c1` [Compound 106aw, (S)-2-((6-((4-cyano-2-fluorobenzyl)oxy)-2′-oxo-[2,4′-bipyridin] -1′(2′H)-yl)methyl)-3-(oxetan-2-ylmethyl)-3H-imidazo[4,5-b]pyridine-5-carboxylic acid] were, in that order, 1.3 nM and 4.1 nM.
